Where two headings read alike, the source gives them in different places. Square brackets hold non-standard residues; d marks the D form. Ends that are not written are not given here. Peptide text beside a SMILES is read from it. pS = N[C@@H](COP(=O)(O)O)C(=O)O
Legend:
HLA-A2 [1] = molecular target: T1, HLA-A2 (Homo sapiens, UniProt P04439, D140Y/D185E/D98H/E176V/E277Q/G131W/G231S/I119V/I121R/I166T/I218V/L300P/L318F/N151K/N90K/P208A/P217A/Q86G/Q94H/R138H/R169H/T345S); assay: Competitive peptide-MHC affinity assay (displacement of radiolabeled peptide); settings: competitive binding, IC50 of displacement of radiolabeled peptide taken as approximation of Kd; 100,000-fold concentration range, each concentration in triplicate; W6/32 capture; read-out: Kd (pMHC affinity for HLA-A2)
T1 construct: made in house
Experimental: HLA-A2 heavy chain was expressed in E. coli, refolded with β2M and the peptide […], and purified as described above. Competitive peptide binding assays were carried out as described. Test peptide concentrations covered a 100,000-fold range, with each concentration assayed in triplicate. MHC-peptide complexes were captured on microplates coated with monoclonal antibody W6/32 (to human HLA) and washed, and radioactivity quantified with a microscintillation counter. The concentration of test peptide that displaced 50% of the radiolabeled peptide (IC50) was calculated. In these conditions (in which the concentration of the label is less than the concentration of MHC and the IC50 is greater than or equal to the concentration of MHC), the IC50 is a reasonable approximation of the dissociation constant.

TCRpCDC25b = assay: SPR (BIAcore) TCR/peptide-MHC binding, HLA-A2-peptide complex injected over immobilised TCR; design: species or system mice; settings: for specific binding of HLA-A2-peptide complex to immobilised TCRpCDC25b: responses compared with control surfaces (LDN5 and streptavidin), Figure 7A
From the text: Having established that phosphorylation has diverse effects on epitope structure, we aimed to test whether a phosphorylated epitope could be distinguished from its unmodified counterpart by the TCR. We previously generated phosphopeptide-specific CD8^+ T cells by immunising mice expressing a transgenic recombinant HLA-A*0201 molecule (AAD) with activated bone-marrow-derived dendritic cells pulsed with synthetic phosphopeptides corresponding to those naturally presented on the surface of human tumour cell lines. Despite the ability to isolate functional phosphopeptide specific T-cells, attempts to generate clonal populations of RQA_V specific T-cells for TCR isolation or produce soluble TCRs of sufficient quality from T-cell clones specific for PKD and RQI were unsuccessful. However we were able to generate soluble TCR (termed TCRpCDC25b) using cDNA sequences isolated from a T cell clone that recognised a phosphopeptide epitope derived from the CDC25b protein (GLLGpSPVRA, subsequently termed GLLGpS) of sufficient quality for surface plasmon resonance analysis.
To investigate if recognition was dependent on the GLLGS amino acid sequence, we also tested binding of immobilised TCRpCDC25b to HLA-A2 containing a different phosphopeptide featuring a p-Ser at position 5 (SLLTpSPPKA (termed SLLTpS) derived from Thyroid hormone receptor interacting protein 12). […] We then measured the strength of TCRpCDC25b phosphopeptide recognition by equilibrium affinity analysis, repeating injections of HLA-A2-GLLGpS over a range of concentrations (Figure 7B). […] In both orientations, the presence of low-level protein aggregates was evident at higher concentrations.
Experiments utilised a BIAcore 3000 and HBS-EP buffer, at a flow rate of 10 μl.min^−1. For HLA-peptide injections, recombinant TCRs were produced in the Drosophila expression system incorporating C-terminal biotinylation tags, biotinylated in vitro using BirA, and immobilised to streptavidin-coated CM5 surfaces. […] Data were analysed using BIAevaluation 3.1 and Origin graphing software.

HLA-A2 [2] = molecular target: T1, HLA-A2; design: method as in PMID 18836451; settings: binding of peptide to HLA-A2, modified vs unmodified form; read-out: Kd (pMHC affinity for HLA-A2); cited from earlier work

Kd (HLA-A2 [1]) [nM]	Molecule	also measured
60	CC[C@H](C)[C@H](NC(=O)[C@H](COP(=O)(O)O)NC(=O)[C@H](C)NC(=O)[C@H](CCC(N)=O)NC(=O)[C@@H](N)CCCNC(=N)N)C(=O)N[C@@H](CCC(=O)O)C(=O)N[C@@H](CC(C)C)C(=O)N1CCC[C@H]1C(=O)N[C@@H](CO)C(=O)N[C@@H](CCSC)C(=O)N[C@@H](C)C(=O)N[C@H](C(=O)O)C(C)C [RQA_Vp]	
26	CC[C@H](C)[C@H](NC(=O)[C@H](CO)NC(=O)[C@H](C)NC(=O)[C@H](CCC(N)=O)NC(=O)[C@@H](N)CCCNC(=N)N)C(=O)N[C@@H](CCC(=O)O)C(=O)N[C@@H](CC(C)C)C(=O)N1CCC[C@H]1C(=O)N[C@@H](CO)C(=O)N[C@@H](CCSC)C(=O)N[C@@H](C)C(=O)N[C@H](C(=O)O)C(C)C [RQA_Vnp]	
1920	RQISQDVKL [RQInp]	
25.5	CC[C@H](C)[C@H](NC(=O)[C@H](CCC(N)=O)NC(=O)[C@@H](N)CCCNC(=N)N)C(=O)N[C@@H](COP(=O)(O)O)C(=O)N[C@@H](CCC(N)=O)C(=O)N[C@@H](CC(=O)O)C(=O)N[C@H](C(=O)N[C@@H](CCCCN)C(=O)N[C@@H](CC(C)C)C(=O)O)C(C)C [RQIp] (H-RQI[pS]QDVKL-OH)	
	GLLGpSPVRA	specific binding of HLA-A2-peptide complex to immobilised TCRpCDC25b (TCRpCDC25b): specific binding; Kd (TCRpCDC25b; two independent equilibrium analyses, once in either orientation, Scatchard analyses and hyperbolic fitting, read-out: Kd values from both orientations (range)): 35000 to 41000 nM
	RQApSLSISV [PKD2p, canonical phosphopeptide antigen derived from Protein Kinase D2]	Kd (HLA-A2 [2]): 38.5 nM
	SLLTpSPPKA [reference compound]	specific binding of HLA-A2-peptide complex to immobilised TCRpCDC25b (TCRpCDC25b): identical responses over TCRpCDC25b and control surfaces
